Source: ChEMBL document CHEMBL1142548, “Time-dependent intracellular trafficking of FITC-conjugated epigallocatechin-3-O-gallate in L-929 cells” (Bioorg Med Chem, 2008)

Test system: L1210
Test: Cytotoxicity against mouse L1210 cells after 24 hrs by WST8 assay
Assay type: functional, cell-based
Details: L1210, 24 h

Q: With O=C(O[C@@H]1Cc2c(O)cc(O)cc2O[C@@H]1c1cc(O)c(O)c(O)c1)c1cc(O)c(O)c(OC(=S)Nc2ccc3c(c2)C(=O)OC32c3ccc(O)cc3Oc3cc(O)ccc32)c1 as the compound, how does the IC50 read?
A: ≥ 325 µM

Q: O=C1OC2(c3ccc(O)cc3Oc3cc(O)ccc32)c2ccc(N=C=S)cc21 was tested. Which IC50 did it give?
A: 700 µM

Q: Which IC50 does the source give for O=C(O[C@@H]1Cc2c(O)cc(O)cc2O[C@@H]1c1cc(O)c(O)c(O)c1)c1cc(O)c(O)c(O)c1 [EPIGALOCATECHIN GALLATE] here?
A: 690 µM
